Experimental findings from US10329289B2, “6,7-dihydro-5H-pyrrolo[3,4-B]pyridin-5-one allosteric modulators of the M4 muscarinic acetylcholine receptor” (Merck Sharp & Dohme Corp., priority 2015, dated 2019) are described below.

The test deals with T1, human M4 muscarinic acetylcholine receptor (Homo sapiens, UniProt P08173).
T1 construct: expressed in transfected cells; host or cells: CHO-K1
T1 sequence (P08173 1-479): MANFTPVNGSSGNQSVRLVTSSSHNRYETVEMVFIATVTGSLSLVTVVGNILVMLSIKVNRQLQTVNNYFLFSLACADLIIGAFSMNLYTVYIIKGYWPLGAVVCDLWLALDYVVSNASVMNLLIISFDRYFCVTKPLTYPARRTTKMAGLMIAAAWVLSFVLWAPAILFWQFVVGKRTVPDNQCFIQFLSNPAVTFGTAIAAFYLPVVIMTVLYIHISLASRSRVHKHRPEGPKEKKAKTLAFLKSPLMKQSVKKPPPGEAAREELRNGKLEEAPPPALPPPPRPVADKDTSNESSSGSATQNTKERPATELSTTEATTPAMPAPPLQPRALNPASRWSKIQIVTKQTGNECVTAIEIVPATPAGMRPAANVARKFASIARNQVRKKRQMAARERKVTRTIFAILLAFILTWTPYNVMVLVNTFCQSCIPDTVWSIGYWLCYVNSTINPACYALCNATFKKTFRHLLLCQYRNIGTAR
The test is described as follows: human FLIPR-based M4 PAM assay (Ca2+ mobilization, CHO-K1 cells with human M4 receptor and Gαqi5). The settings on record: acetylcholine at 20% of maximum response, read-out: M4 PAM IP. The test is classed as cell-based. In a few lines: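 Calcium-mobilization (FLIPR) readout in dye-loaded CHO-K1 cells co-expressing human M4 receptor and Gαqi5. Potentiation measured against acetylcholine at a concentration giving 20% of maximal response, with an optional 70% addition; the reported value is the curve inflection point from a 4-parameter logistic fit.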
A general note: Calcium assays in cells follow changes in intracellular calcium, usually with a dye or a luminescent sensor.
For the compound `Cc1cc2c(nc1N1CC[C@@H](Oc3ccc4c(c3)C(=O)N(C)C4)[C@@H](F)C1)CNC2=O` [Example 163, 2-((3S,4R)-3-fluoro-4-((2-methyl-3-oxoisoindolin-5-yl)oxy)piperidin-1-yl)-3-methyl-6,7-dihydro-5H-pyrrolo[3,4-b]pyridin-5-one], the EC50 turned out to be 277 nM.

In the case of `Cc1cc2c(nc1N1CCC(Oc3ccc4[nH]nnc4c3)CC1)CNC2=O` [Example 163A, 2-(4-((1H-benzo[d][1,2,3]triazol-5-yl)oxy)piperidin-1-yl)-3-methyl-6,7-dihydro-5H-pyrrolo[3,4-b]pyridin-5-one], the EC50 came to 1140 nM.

Take `COc1ccc(O[C@@H]2CCN(c3nc4c(cc3C)C(=O)NC4)C[C@@H]2F)cn1` [Example 164, 2-((3S,4R)-3-fluoro-4-((6-methoxypyridin-3-yl)oxy)piperidin-1-yl)-3-methyl-6,7-dihydro-5H-pyrrolo[3,4-b]pyridin-5-one]: the EC50 is 82 nM.

`CCc1cc2c(nc1N1CC[C@@H](Oc3cnc4c(c3)COC4)[C@@H](F)C1)CNC2=O` [Example 164A, 2-((3S,4R)-4-((5,7-dihydrofuro[3,4-b]pyridin-3-yl)oxy)-3-fluoropiperidin-1-yl)-3-ethyl-6,7-dihydro-5H-pyrrolo[3,4-b]pyridin-5-one]: the EC50 is 202 nM.

For the compound `Cc1c(N2CC[C@@H](Oc3cnc4c(c3)COC4)[C@@H](F)C2)nc2c(c1C)C(=O)NC2` [Example 165A, 2-((3S,4R)-4-((5,7-dihydrofuro[3,4-b]pyridin-3-yl)oxy)-3-fluoropiperidin-1-yl)-3,4-dimethyl-6,7-dihydro-5H-pyrrolo[3,4-b]pyridin-5-one], the EC50 worked out at 83 nM.

Turning to `CCc1cc2c(nc1N1CCC(Oc3ccc4c(c3)C[C@H](O)C4)CC1)CNC2=O` [Example 166A, (R)-3-ethyl-2-(4-((2-hydroxy-2,3-dihydro-1H-inden-5-yl)oxy)piperidin-1-yl)-6,7-dihydro-5H-pyrrolo[3,4-b]pyridin-5-one], the EC50 stood at 61 nM.

For the compound `CCc1cc2c(nc1N1CCC(Oc3ccc4c(c3)C[C@@H](O)C4)CC1)CNC2=O` [Example 166B, (S)-3-ethyl-2-(4-((2-hydroxy-2,3-dihydro-1H-inden-5-yl)oxy)piperidin-1-yl)-6,7-dihydro-5H-pyrrolo[3,4-b]pyridin-5-one], the EC50 is 57 nM.

`Cc1cc2c(nc1N1CCC(Oc3ccc4[nH]ncc4c3)CC1)CNC2=O` [Example 167, 2-(4-((1H-indazol-5-yl)oxy)piperidin-1-yl)-3-methyl-6,7-dihydro-5H-pyrrolo[3,4-b]pyridin-5-one]: the EC50 amounted to 14 nM.

With `Cc1cc2c(nc1N1CCC(Oc3ccc4c(c3)C[S+]([O-])C4)CC1)CNC2=O` (stereo not shown) [Example 167A, 3-methyl-2-(4-((2-oxido-1,3-dihydrobenzo[c]thio-phen-5-yl)oxy)piperidin-1-yl)-6,7-dihydro-5H-pyrrolo[3,4-b]pyridin-5-one], the EC50 came out at 188 nM.

For `Cc1cc2c(nc1N1CCC(Oc3ccc(OCCN(C)C)nc3)CC1)CNC2=O` [Example 168, 2-(4-((6-(2-(dimethylamino)ethoxy)pyridin-3-yl)oxy)piperidin-1-yl)-3-methyl-6,7-dihydro-5H-pyrrolo[3,4-b]pyridin-5-one], the EC50 worked out at 119 nM.

As for `Cc1cc2c(nc1N1CCC(Oc3ccc(OCC(C)(C)N)nc3)CC1)CNC2=O` [Example 169, 2-(4-((6-(2-amino-2-methylpropoxy)pyridin-3-yl)oxy)piperidin-1-yl)-3-methyl-6,7-dihydro-5H-pyrrolo[3,4-b]pyridin-5-one], the EC50 was found to be 183 nM.

Consider `CCn1cc(OC2CCN(c3nc4c(cc3C)C(=O)NC4)CC2)cn1` [Example 169A, 2-(4-((1-ethyl-1H-pyrazol-4-yl)oxy)piperidin-1-yl)-3-methyl-6,7-dihydro-5H-pyrrolo[3,4-b]pyridin-5-one], for which the EC50 was 180 nM.

With `Cc1cc2c(nc1N1CCC(Oc3ccc(OCCO)nc3)CC1)CNC2=O` [Example 170, 2-(4-((6-(2-hydroxyethoxy)pyridin-3-yl)oxy)piperidin-1-yl)-3-methyl-6,7-dihydro-5H-pyrrolo[3,4-b]pyridin-5-one], the EC50 was found to be 40 nM.

As for `Cc1cc2c(nc1N1CCC(Oc3cnn(-c4ccccc4)c3)CC1)CNC2=O` [Example 170A, 3-methyl-2-(4-((1-phenyl-1H-pyrazol-4-yl)oxy)piperidin-1-yl)-6,7-dihydro-5H-pyrrolo[3,4-b]pyridin-5-one], the EC50 was 129 nM.

Regarding `COCCOc1ccc(OC2CCN(c3nc4c(cc3C)C(=O)NC4)CC2)cn1` [Example 171, 2-(4-((6-(2-methoxyethoxy)pyridin-3-yl)oxy)piperidin-1-yl)-3-methyl-6,7-dihydro-5H-pyrrolo[3,4-b]pyridin-5-one], the EC50 amounted to 79 nM.

As for `Cc1cc2c(nc1N1CC[C@@H](OCC3(C)CC3)C(F)(F)C1)CNC2=O` [Example 171A, (R)-2-(3,3-difluoro-4-((1-methylcyclopropyl)meth-oxy)piperidin-1-yl)-3-methyl-6,7-dihydro-5H-pyrrolo[3,4-b]pyridin-5-one], the EC50 was determined as 491 nM.

Regarding `Cc1cc2c(nc1N1CC[C@H](OCC3(C)CC3)C(F)(F)C1)CNC2=O` [Example 171B, (S)-2-(3,3-difluoro-4-((1-methylcyclopropyl)meth-oxy)piperidin-1-yl)-3-methyl-6,7-dihydro-5H-pyrrolo[3,4-b]pyridin-5-one], the EC50 is 14 nM.

For the compound `Cc1cc2c(nc1N1CCC(OCC3CCC3)CC1)CNC2=O` [Example 172, 2-(4-(cyclobutylmethoxy)piperidin-1-yl)-3-methyl-6,7-dihydro-5H-pyrrolo[3,4-b]pyridin-5-one], the EC50 is 125 nM.

With `Cc1cc2c(nc1N1CCC(OCC(F)(F)F)CC1)CNC2=O` [Example 172A, 3-methyl-2-(4-(2,2,2-trifluoroethoxy)piperidin-1-yl)-6,7-dihydro-5H-pyrrolo[3,4-b]pyridin-5-one], the EC50 was determined as 905 nM.

For `Cc1cc2c(nc1N1CCC(Oc3ccc(OCCN4CCC4)nc3)CC1)CNC2=O` [Example 173, 2-(4-((6-(2-(azetidin-1-yl)ethoxy)pyridin-3-yl)oxy)piperidin-1-yl)-3-methyl-6,7-dihydro-5H-pyrrolo[3,4-b]pyridin-5-one], the EC50 stood at 313 nM.

With `CCc1cc2c(nc1N1CCC(Oc3cncc(C)c3)CC1)CNC2=O` [Example 173A, 3-ethyl-2-(4-((5-methylpyridin-3-yl)oxy)piperidin-1-yl)-6,7-dihydro-5H-pyrrolo[3,4-b]pyridin-5-one], the EC50 is 207 nM.

With `CC(=O)NCCOc1ccc(OC2CCN(c3nc4c(cc3C)C(=O)NC4)CC2)cn1` [Example 174, N-(2-((5-((1-(3-methyl-5-oxo-6,7-dihydro-5H-pyrrolo[3,4-b]pyridin-2-yl)piperidin-4-yl)oxy)pyridin-2-yl)oxy)ethyl)acetamide], the EC50 turned out to be 45 nM.

As to `Cc1c(N2CC[C@@H](OCC3(C)CC3)[C@H](F)C2)nc2c(c1C)C(=O)NC2` [Example 174A, 2-((3R,4R)-3-fluoro-4-((1-methylcyclopropyl)meth-oxy)piperidin-1-yl)-3,4-dimethyl-6,7-dihydro-5H-pyrrolo[3,4-b]pyridin-5-one], the EC50 worked out at 22 nM.

`Cc1cc2c(nc1N1CCC(OCC3CCCC3)CC1)CNC2=O` [Example 175, 2-(4-(cyclopentylmethoxy)piperidin-1-yl)-3-methyl-6,7-dihydro-5H-pyrrolo[3,4-b]pyridin-5-one]: the EC50 came to 139 nM.

For the compound `Cc1cc2c(nc1N1CCC(OCc3ccncc3)CC1)CNC2=O` [Example 175A, 3-methyl-2-(4-(pyridin-4-ylmethoxy)piperidin-1-yl)-6,7-dihydro-5H-pyrrolo[3,4-b]pyridin-5-one], the EC50 came to 3100 nM.

Regarding `Cc1cc2c(nc1N1CCC(OCC3(C)CC3)CC1)CNC2=O` [Example 176, 3-methyl-2-(4-((1-methylcyclopropyl)meth-oxy)piperidin-1-yl)-6,7-dihydro-5H-pyrrolo[3,4-b]pyridin-5-one], the EC50 worked out at 39 nM.

For the compound `CCc1cc2c(nc1N1CCC(OCC3CC3)CC1)CNC2=O` [Example 176A, 2-(4-(cyclopropylmethoxy)piperidin-1-yl)-3-ethyl-6,7-dihydro-5H-pyrrolo[3,4-b]pyridin-5-one], the EC50 is 264 nM.

As to `Cc1cc2c(nc1N1CCC(OCC3CCOC3)CC1)CNC2=O` (stereo not shown) [Example 177, 3-methyl-2-(4-((tetrahydrofuran-3-yl)methoxy)piperidin-1-yl)-6,7-dihydro-5H-pyrrolo[3,4-b]pyridin-5-one], the EC50 came to 1810 nM.

For `Cc1cc2c(nc1N1CCC(OCC3(C)CCCC3)CC1)CNC2=O` [Example 178, 3-methyl-2-(4-((1-methylcyclopentyl)meth-oxy)piperidin-1-yl)-6,7-dihydro-5H-pyrrolo[3,4-b]pyridin-5-one], the EC50 was found to be 2480 nM.

Consider `Cc1cc2c(nc1N1CC[C@@H](Oc3ccc4c(c3)CCOC4)[C@@H](F)C1)CNC2=O` [Example 178A, 2-((3S,4R)-3-fluoro-4-(isochroman-6-yloxy)piperidin-1-yl)-3-methyl-6,7-dihydro-5H-pyrrolo[3,4-b]pyridin-5-one], for which the EC50 amounted to 18 nM.

For the compound `Cc1cc2c(nc1N1CC[C@@H](Oc3ccc4c(c3)COCC4)[C@@H](F)C1)CNC2=O` [Example 178B, 2-((3S,4R)-3-fluoro-4-(isochroman-7-yloxy)piperidin-1-yl)-3-methyl-6,7-dihydro-5H-pyrrolo[3,4-b]pyridin-5-one], the EC50 was 18 nM.
